# Tested on: MPS IIIA neurons
# Experiment: GABARAPL2 western blot in iPSC-derived cortical neurons treated with CBD
# Format: cell-based, human
# Conditions: CBD 1 μM and 5 μM, cortical neurons from MPS IIIA patients' iPSCs, with or without Bafilomycin A1 200 nM
# Experimental: HCNT: human health controls; MPS IIIA: MPS IIIA forebrain neurons.
# Cortical neurons differentiated from healthy control and MPS IIIA patients' iPSCs. […] GABARAPL2, a protein which involves in autophagy, was measured in a western blot assay (see FIG. 3).
substance,measurement,value
Cannabidiol [CBD],GABARAPL2 accumulation,decreases
